Results published in patent US12606541B2, “PPARg modulators and methods of use” (Eisai R&D Management Co., Ltd., priority 2020, dated 2026).

target: T1, His6-TEV-PPARγ-(234-505) (Homo sapiens, UniProt P37231); assay: TR-FRET Assay to Measure Co-R Peptide Recruitment to PPARγ; type: biochemical; details: Co-R peptide recruitment to PPARγ; read-out: TR-FRET AC50
T1 construct: The His6-TEV-PPARγ-(234-505) protein for assay was expressed and purified; TEV cleavage site (N); made in house
T1 sequence (P37231 234-505): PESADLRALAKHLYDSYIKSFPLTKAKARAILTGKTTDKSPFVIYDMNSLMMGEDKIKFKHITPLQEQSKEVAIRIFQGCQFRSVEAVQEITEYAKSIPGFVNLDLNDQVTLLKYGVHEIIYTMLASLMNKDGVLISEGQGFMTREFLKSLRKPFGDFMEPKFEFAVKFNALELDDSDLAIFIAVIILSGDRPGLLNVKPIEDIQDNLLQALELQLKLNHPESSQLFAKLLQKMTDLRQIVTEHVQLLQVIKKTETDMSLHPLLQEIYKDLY
Description: TR-FRET Assay to Measure Co—R Peptide Recruitment to PPARγ
The 2× detection solution contained anti-6×His-Terbium antibody (CisBio) and FITC labeled Co—R peptide (SMRT-ID2 from New England Peptide) at final concentrations of 5 and 200 nM respectively.
In these assay plates, the positive control in column 24 contained 500 nM (final) T0070907 and the negative control in column 23 contained an identical volume of DMSO. Then, 5 μL of 2+ protein working stock or controls were added to the plate and incubated for 20 minutes at room temperature. Reagents additions were performed with either a Combi (Thermo) or Mantis (Formulatory) pipetting device. The incubation was followed by addition of 5 μL of the 2× detection solution. Plates were covered, centrifuged, and incubated for an additional hour. The TR-FRET data was recorded with an Envision plate reader (Perkin Elmer), using settings recommended by Thermo Fisher. The TR-FRET signal of the positive and negative control's recruitment of FITC-Co—R peptide was used to normalize the TR-FRET signal to percent response and to determine the assay Z prime. Experiments were performed in triplicate and analyzed in GraphPad Prism 7.

AC50, > 1000 nM:
COc1cc(-c2cc(C(=O)N3CCC(C(=O)NC4(C)CCOCC4)CC3)n[nH]2)c(Cl)cn1 [1-[5-(5-chloro-2-methoxypyridin-4-yl)-1H-pyrazole-3-carbonyl]-N-(4-methyloxan-4-yl)piperidine-4-carboxamide]
COc1cc(-c2cc(C(=O)N3CCC(C(=O)Nc4cnncc4Cl)CC3)n[nH]2)c(Cl)cn1 [1-[5-(5-chloro-2-methoxypyridin-4-yl)-1H-pyrazole-3-carbonyl]-N-(5-chloropyridazin-4-yl)piperidine-4-carboxamide]
COc1cc(-c2cc(C(=O)N3CCC(C(=O)Nc4cnc(C)cn4)CC3)n[nH]2)c(Cl)cn1 [1-[5-(5-chloro-2-methoxypyridin-4-yl)-1H-pyrazole-3-carbonyl]-N-(5-methylpyrazin-2-yl)piperidine-4-carboxamide]
COc1cc(-c2cc(C(=O)N3CCC(C(=O)NC4CNC(=O)C4)CC3)n[nH]2)c(Cl)cn1 (stereo not drawn) [1-[5-(5-chloro-2-methoxypyridin-4-yl)-1H-pyrazole-3-carbonyl]-N-(5-oxopyrrolidin-3-yl)piperidine-4-carboxamide]
COc1cc(-c2cc(C(=O)N3CCC(C(=O)Nc4cc(-c5ccccc5)[nH]n4)CC3)n[nH]2)c(Cl)cn1 [1-[5-(5-chloro-2-methoxypyridin-4-yl)-1H-pyrazole-3-carbonyl]-N-(5-phenyl-1H-pyrazol-3-yl)piperidine-4-carboxamide]
COc1cc(-c2cc(C(=O)N3CCC(C(=O)NC4CCS(=O)(=O)c5ccc(F)cc54)CC3)n[nH]2)c(Cl)cn1 (stereo not drawn) [1-[5-(5-chloro-2-methoxypyridin-4-yl)-1H-pyrazole-3-carbonyl]-N-(6-fluoro-1,1-dioxo-3,4-dihydro-2H-1λ^6-benzothiopyran-4-yl)piperidine-4-carboxamide]
COc1cc(-c2cc(C(=O)N3CCC(C(=O)Nc4cncc(C)n4)CC3)n[nH]2)c(Cl)cn1 [1-[5-(5-chloro-2-methoxypyridin-4-yl)-1H-pyrazole-3-carbonyl]-N-(6-methylpyrazin-2-yl)piperidine-4-carboxamide]
COc1cc(-c2cc(C(=O)N3CCC(C(=O)Nc4cnnc5ccccc45)CC3)n[nH]2)c(Cl)cn1 [1-[5-(5-chloro-2-methoxypyridin-4-yl)-1H-pyrazole-3-carbonyl]-N-(cinnolin-4-yl)piperidine-4-carboxamide]
COc1cc(-c2cc(C(=O)N3CCC(C(=O)NCc4nc5c(cnn5C)c(=O)[nH]4)CC3)n[nH]2)c(Cl)cn1 [1-[5-(5-chloro-2-methoxypyridin-4-yl)-1H-pyrazole-3-carbonyl]-N-({1-methyl-4-oxo-1H,4H,5H-pyrazolo[3,4-d]pyrimidin-6-yl}methyl)piperidine-4-carboxamide]
COc1cc(-c2cc(C(=O)N3CCC(C(=O)NCc4ccn5c(C)c(C)nc5c4)CC3)n[nH]2)c(Cl)cn1 [1-[5-(5-chloro-2-methoxypyridin-4-yl)-1H-pyrazole-3-carbonyl]-N-({2,3-dimethylimidazo[1,2-a]pyridin-7-yl}methyl)piperidine-4-carboxamide]
COc1cc(-c2cc(C(=O)N3CCC(C(=O)NCc4nc5cccnc5[nH]4)CC3)n[nH]2)c(Cl)cn1 [1-[5-(5-chloro-2-methoxypyridin-4-yl)-1H-pyrazole-3-carbonyl]-N-({3H-imidazo[4,5-b]pyridin-2-yl}methyl)piperidine-4-carboxamide]
COc1cc(-c2cc(C(=O)N3CCC(C(=O)NCc4c(C)nc5cc(=O)[nH]n5c4C)CC3)n[nH]2)c(Cl)cn1 [1-[5-(5-chloro-2-methoxypyridin-4-yl)-1H-pyrazole-3-carbonyl]-N-({5,7-dimethyl-2-oxo-1H,2H-pyrazolo[1,5-a]pyrimidin-6-yl}methyl)piperidine-4-carboxamide]
COc1cc(-c2cc(C(=O)N3CCC(C(=O)NCc4ccc5ncnn5c4)CC3)n[nH]2)c(Cl)cn1 [1-[5-(5-chloro-2-methoxypyridin-4-yl)-1H-pyrazole-3-carbonyl]-N-({[1,2,4]triazolo[1,5-a]pyridin-6-yl}methyl)piperidine-4-carboxamide]
COc1cc(-c2cc(C(=O)N3CCC(C(=O)NCc4nnc5ccccn45)CC3)n[nH]2)c(Cl)cn1 [1-[5-(5-chloro-2-methoxypyridin-4-yl)-1H-pyrazole-3-carbonyl]-N-({[1,2,4]triazolo[4,3-a]pyridin-3-yl}methyl)piperidine-4-carboxamide]
COc1cc(-c2cc(C(=O)N3CCC(C(=O)NCc4ccc5nncn5c4)CC3)n[nH]2)c(Cl)cn1 [1-[5-(5-chloro-2-methoxypyridin-4-yl)-1H-pyrazole-3-carbonyl]-N-({[1,2,4]triazolo[4,3-a]pyridin-6-yl}methyl)piperidine-4-carboxamide]
COc1cc(-c2cc(C(=O)N3CCC(C(=O)NCc4cn5ccnc5cn4)CC3)n[nH]2)c(Cl)cn1 [1-[5-(5-chloro-2-methoxypyridin-4-yl)-1H-pyrazole-3-carbonyl]-N-({imidazo[1,2-a]pyrazin-6-yl}methyl)piperidine-4-carboxamide]
COc1cc(-c2cc(C(=O)N3CCC(C(=O)NCc4ccn5ccnc5c4)CC3)n[nH]2)c(Cl)cn1 [1-[5-(5-chloro-2-methoxypyridin-4-yl)-1H-pyrazole-3-carbonyl]-N-({imidazo[1,2-a]pyridin-7-yl}methyl)piperidine-4-carboxamide]
COc1cc(-c2cc(C(=O)N3CCC(C(=O)NCc4cn5cccnc5n4)CC3)n[nH]2)c(Cl)cn1 [1-[5-(5-chloro-2-methoxypyridin-4-yl)-1H-pyrazole-3-carbonyl]-N-({imidazo[1,2-a]pyrimidin-2-yl}methyl)piperidine-4-carboxamide]
COc1cc(-c2cc(C(=O)N3CCC(C(=O)NCc4cnc5nccn5c4)CC3)n[nH]2)c(Cl)cn1 [1-[5-(5-chloro-2-methoxypyridin-4-yl)-1H-pyrazole-3-carbonyl]-N-({imidazo[1,2-a]pyrimidin-6-yl}methyl)piperidine-4-carboxamide]
COc1cc(-c2cc(C(=O)N3CCC(C(=O)NC4(c5cccc(Cl)c5)CC4)CC3)n[nH]2)c(Cl)cn1 [1-[5-(5-chloro-2-methoxypyridin-4-yl)-1H-pyrazole-3-carbonyl]-N-[1-(3-chlorophenyl)cyclopropyl]piperidine-4-carboxamide]
COc1cc(-c2cc(C(=O)N3CCC(C(=O)NC(C)C4COC4)CC3)n[nH]2)c(Cl)cn1 (stereo not drawn) [1-[5-(5-chloro-2-methoxypyridin-4-yl)-1H-pyrazole-3-carbonyl]-N-[1-(oxetan-3-yl)ethyl]piperidine-4-carboxamide]
COc1cc(-c2cc(C(=O)N3CCC(C(=O)NC(C)c4cnccn4)CC3)n[nH]2)c(Cl)cn1 (stereo not drawn) [1-[5-(5-chloro-2-methoxypyridin-4-yl)-1H-pyrazole-3-carbonyl]-N-[1-(pyrazin-2-yl)ethyl]piperidine-4-carboxamide]
COc1cc(-c2cc(C(=O)N3CCC(C(=O)NC(C)c4ncccn4)CC3)n[nH]2)c(Cl)cn1 (stereo not drawn) [1-[5-(5-chloro-2-methoxypyridin-4-yl)-1H-pyrazole-3-carbonyl]-N-[1-(pyrimidin-2-yl)ethyl]piperidine-4-carboxamide]
COc1cc(-c2cc(C(=O)N3CCC(C(=O)NCCn4ccccc4=O)CC3)n[nH]2)c(Cl)cn1 [1-[5-(5-chloro-2-methoxypyridin-4-yl)-1H-pyrazole-3-carbonyl]-N-[2-(2-oxo-1,2-dihydropyridin-1-yl)ethyl]piperidine-4-carboxamide]
COc1cc(-c2cc(C(=O)N3CCC(C(=O)NC(C)(C)c4cccc(Cl)c4)CC3)n[nH]2)c(Cl)cn1 [1-[5-(5-chloro-2-methoxypyridin-4-yl)-1H-pyrazole-3-carbonyl]-N-[2-(3-chlorophenyl)propan-2-yl]piperidine-4-carboxamide]
COc1cc(-c2cc(C(=O)N3CCC(C(=O)NC4CC4C(F)(F)F)CC3)n[nH]2)c(Cl)cn1 (stereo not drawn) [1-[5-(5-chloro-2-methoxypyridin-4-yl)-1H-pyrazole-3-carbonyl]-N-[2-(trifluoromethyl)cyclopropyl]piperidine-4-carboxamide]
COc1cc(-c2cc(C(=O)N3CCC(C(=O)Nc4cc(C(F)(F)F)no4)CC3)n[nH]2)c(Cl)cn1 [1-[5-(5-chloro-2-methoxypyridin-4-yl)-1H-pyrazole-3-carbonyl]-N-[3-(trifluoromethyl)-1,2-oxazol-5-yl]piperidine-4-carboxamide]
